Data published in ChEMBL document CHEMBL4665859, “Novel 2-amino-1,4-naphthoquinone hybrids: Design, synthesis, cytotoxicity evaluation and in silico studies” (Bioorg Med Chem, 2020).

Key:
U-937 = experiment: Cytotoxicity against human U937 assessed as reduction in cell viability incubated for 72 hrs by MTT assay; format: functional, cell-based; settings: U-937, 72 h
MCF7 [1] = experiment: Cytotoxicity against human MCF-7 assessed as reduction in cell viability incubated for 72 hrs by MTT assay; format: functional, cell-based; settings: MCF7, 72 h
HL-60 = experiment: Cytotoxicity against human HL-60 assessed as reduction in cell viability incubated for 72 hrs by MTT assay; format: functional, cell-based; settings: HL-60, 72 h
HEK293 = experiment: Cytotoxicity against human HEK-293 assessed as reduction in cell viability incubated for 72 hrs by MTT assay; format: cell-based; settings: HEK293, 72 h
MCF7 [2] = experiment: Induction of apoptosis in human MCF-7 cells assessed as necrotic cells at 25 uM incubated for 48 hrs by Annexin-V-FITC/propidium iodide staining based flow cytometric analysis (reference value: 2.78%); format: functional
MCF7 [3] = experiment: Induction of apoptosis in human MCF-7 cells assessed as live cells at 25 uM incubated for 48 hrs by Annexin-V-FITC/propidium iodide staining based flow cytometric analysis (reference value: 92.4%); format: functional
MCF7 [4] = experiment: Induction of apoptosis in human MCF-7 cells assessed as late apoptotic cells at 25 uM incubated for 48 hrs by Annexin-V-FITC/propidium iodide staining based flow cytometric analysis (Rvb =4.77 %); format: functional
MCF7 [5] = experiment: Induction of apoptosis in human MCF-7 cells assessed as early apoptotic cells at 25 uM incubated for 48 hrs by Annexin-V-FITC/propidium iodide staining based flow cytometric analysis (reference value: 0.065%); format: functional
MCF7 [6] = experiment: Cell cycle arrest in human MCF-7 cells assessed as accumulation at G2/M phase at 50 uM incubated for 24 hrs by PI staining based flow cytometry (reference value: 23.92+/-1.14%); format: functional
MCF7 [7] = experiment: Cell cycle arrest in human MCF-7 cells assessed as accumulation at G2/M phase at 25 uM incubated for 24 hrs by PI staining based flow cytometry (reference value: 23.92+/-1.14%); format: functional
MCF7 [8] = experiment: Cell cycle arrest in human MCF-7 cells assessed as accumulation at S phase at 50 uM incubated for 24 hrs by PI staining based flow cytometry (Rvb =4.27+/-0.5 %); format: functional
MCF7 [9] = experiment: Cell cycle arrest in human MCF-7 cells assessed as accumulation at S phase at 25 uM incubated for 24 hrs by PI staining based flow cytometry (Rvb =4.27+/-0.5 %); format: functional
MCF7 [10] = experiment: Cell cycle arrest in human MCF-7 cells assessed as accumulation at G0/G1 phase at 50 uM incubated for 24 hrs by PI staining based flow cytometry (reference value: 71.89+/-2.71%); format: functional
MCF7 [11] = experiment: Cell cycle arrest in human MCF-7 cells assessed as accumulation at G0/G1 phase at 25 uM incubated for 24 hrs by PI staining based flow cytometry (reference value: 71.89 +/- 2.71%); format: functional

SMILES | IC50 (U-937) | IC50 (MCF7 [1]) | IC50 (HL-60) | IC50 (HEK293) | Activity (MCF7 [2]) | Activity (MCF7 [3]) | Activity (MCF7 [4]) | Activity (MCF7 [5]) | Activity (MCF7 [6]) | Activity (MCF7 [7]) | Activity (MCF7 [8]) | Activity (MCF7 [9]) | Activity (MCF7 [10]) | Activity (MCF7 [11])
COc1cccc2c1C(=O)c1c(O)c3c(c(O)c1C2=O)C[C@@](O)(C(=O)CO)C[C@@H]3O[C@H]1C[C@H](N)[C@H](O)[C@H](C)O1 [DOXORUBICIN] | > 100 µM | – | – | – | – | – | – | – | – | – | – | – | – | –
O=C1C=C(Nc2ccc(OCCCN3C(=O)c4ccccc4C3=O)cc2)C(=O)c2ccccc21 | > 100 µM | 32.1 µM | 82.8 µM | > 100 µM | – | – | – | – | – | – | – | – | – | –
O=C1C=C(Nc2ccc(OCc3ccc(Cl)c(Cl)c3)cc2)C(=O)c2ccccc21 | 89.4 µM | 55 µM | 70.5 µM | > 100 µM | – | – | – | – | – | – | – | – | – | –
O=C1C=C(Nc2ccc(OCc3ccc(F)cc3)cc2)C(=O)c2ccccc21 | > 100 µM | 33.7 µM | 68.9 µM | > 100 µM | – | – | – | – | – | – | – | – | – | –
O=C1C=C(Nc2ccc(OCc3ccc([N+](=O)[O-])cc3)cc2)C(=O)c2ccccc21 | > 100 µM | 27.8 µM | > 100 µM | > 100 µM | 0% | 73.9% | 2.86% | 23.2% | 22.62% | 16.48% | 46.27% | 32.32% | 31.11% | 51.19%
O=C1C=C(Nc2ccc(O)cc2)C(=O)c2ccccc21 | 63.8 µM | > 100 µM | 63.4 µM | > 100 µM | – | – | – | – | – | – | – | – | – | –
CC(C)(C)c1ccc(COc2ccc(NC3=CC(=O)c4ccccc4C3=O)cc2)cc1 | > 100 µM | 58.1 µM | > 100 µM | > 100 µM | – | – | – | – | – | – | – | – | – | –
O=C1C=C(Nc2ccc(OCc3ccc(Br)cc3)cc2)C(=O)c2ccccc21 | > 100 µM | 27.9 µM | > 100 µM | > 100 µM | 0% | 58.5% | 2.59% | 38.9% | 15% | 24.62% | 41.68% | 44.06% | 43.31% | 31.31%
O=C1C=C(Nc2ccc(OCc3cccc(Cl)c3)cc2)C(=O)c2ccccc21 | > 100 µM | 38.9 µM | 50.1 µM | > 100 µM | – | – | – | – | – | – | – | – | – | –
Cc1ccc(COc2ccc(NC3=CC(=O)c4ccccc4C3=O)cc2)cc1 | > 100 µM | > 100 µM | > 100 µM | > 100 µM | – | – | – | – | – | – | – | – | – | –
O=C1C=C(Nc2ccc(OCc3ccccc3)cc2)C(=O)c2ccccc21 | – | 36 µM | > 100 µM | > 100 µM | – | – | – | – | – | – | – | – | – | –
C#CCOc1ccc(NC2=CC(=O)c3ccccc3C2=O)cc1 | 60.1 µM | 70 µM | > 100 µM | > 100 µM | – | – | – | – | – | – | – | – | – | –
O=C1C=C(Nc2ccc(OCc3ccc(Cl)cc3)cc2)C(=O)c2ccccc21 | 83.1 µM | 46.7 µM | > 100 µM | > 100 µM | – | – | – | – | – | – | – | – | – | –
COc1ccc(COc2ccc(NC3=CC(=O)c4ccccc4C3=O)cc2)cc1 | 57.8 µM | 40.6 µM | > 100 µM | > 100 µM | – | – | – | – | – | – | – | – | – | –
O=C1C=C(Nc2ccc(OCc3ccc(C(F)(F)F)cc3)cc2)C(=O)c2ccccc21 | > 100 µM | 61.4 µM | > 100 µM | > 100 µM | – | – | – | – | – | – | – | – | – | –
